According to a compilation of properties of binary mixtures (doi:10.1016/j.jct.2020.106232):

Experiment: xn = mol fraction of the nth substance listed
Conditions: 100 kPa

CCCC[n+]1ccn(C)c1.O=[N+]([O-])[O-] + CCCCCO
viscosity [mPa·s]
Conditions	293.15 K	303.15 K	313.15 K	323.15 K
x1 = 0.0824	5.32	3.84	2.94	–
x1 = 0.1538	6.83	4.88	3.59	2.69
x1 = 0.2318	8.87	6.36	4.68	3.38
x1 = 0.3425	13.1	9.46	6.76	4.63
x1 = 0.4363	–	13.2	9.14	6.19
x1 = 0.5668	–	21	14	9.37
x1 = 0.6481	40.3	28.1	–	12.31
x1 = 0.7481	–	41	27	17.3
x1 = 0.8416	94.9	59.8	–	24.3
x1 = 0.9415	160	94	–	–
x1 = 1	224	125	75.1	45.2

CCCCCO + CCCC[n+]1ccn(C)c1.O=[N+]([O-])[O-]
x2 = 0
Conditions	viscosity [mPa·s]
293.15 K	4.03
303.15 K	3.04
313.15 K	2.33
323.15 K	1.81
